Reference: ChEMBL document CHEMBL1149774, “Synthesis of N-(5,7-diamino-3-phenyl-quinoxalin-2-yl)-3,4,5-substituted anilines and N-[4[(5,7-diamino-3-phenylquinoxalin-2-yl)amino]benzoyl]-l-glutamic acid diethyl ester: evaluation of in vitro anti-cancer and anti-folate activities” (Eur J Med Chem, 2008)

Legend:
Assay type in all cases: functional
HOP-62 = test: Growth inhibition of human HOP62 cells after 48 hrs by SRB staining method; conditions: HOP-62, 48 h
NCI-H226 = test: Growth inhibition of human NCI-H226 cells after 48 hrs by SRB staining method; conditions: NCI-H226, 48 h
NCI-H23 = test: Growth inhibition of human NCI-H23 cells after 48 hrs by SRB staining method; conditions: NCI-H23, 48 h
NCI-H522 = test: Growth inhibition of human NCI-H522 cells after 48 hrs by SRB staining method; conditions: NCI-H522, 48 h
HCT-116 = test: Growth inhibition of human HCT116 cells after 48 hrs by SRB staining method; conditions: HCT-116, 48 h
HCT-15 = test: Growth inhibition of human HCT15 cells after 48 hrs by SRB staining method; conditions: HCT-15, 48 h
SF-295 = test: Growth inhibition of human SF295 cells after 48 hrs by SRB staining method; conditions: SF-295, 48 h
SNB-19 = test: Growth inhibition of human SNB19 cells after 48 hrs by SRB staining method; conditions: SNB-19, 48 h
U-251 = test: Growth inhibition of human U251 cells after 48 hrs by SRB staining method; conditions: U-251, 48 h
SK-MEL-2 = test: Growth inhibition of human SK-MEL-2 cells after 48 hrs by SRB staining method; conditions: SK-MEL-2, 48 h
UACC-62 = test: Growth inhibition of human UACC62 cells after 48 hrs by SRB staining method; conditions: UACC-62, 48 h
IGROV-1 = test: Growth inhibition of human IGROV1 cells after 48 hrs by SRB staining method; conditions: IGROV-1, 48 h
OVCAR-3 = test: Growth inhibition of human OVCAR-3 cells after 48 hrs by SRB staining method; conditions: OVCAR-3, 48 h
OVCAR-4 = test: Growth inhibition of human OVCAR4 cells after 48 hrs by SRB staining method; conditions: OVCAR-4, 48 h
OVCAR-5 = test: Growth inhibition of human OVCAR5 cells after 48 hrs by SRB staining method; conditions: OVCAR-5, 48 h
786-0 = test: Growth inhibition of human 786-0 cells after 48 hrs by SRB staining method; conditions: 786-0, 48 h
CAKI-1 = test: Growth inhibition of human CAKI1 cells after 48 hrs by SRB staining method; conditions: CAKI-1, 48 h
RXF 393 = test: Growth inhibition of human RXF393 cells after 48 hrs by SRB staining method; conditions: RXF 393, 48 h
SN12C = test: Growth inhibition of human SN12C cells after 48 hrs by SRB staining method
TK-10 = test: Growth inhibition of human TK10 cells after 48 hrs by SRB staining method; conditions: TK-10, 48 h
UO-31 = test: Growth inhibition of human UO31 cells after 48 hrs by SRB staining method; conditions: UO-31, 48 h
PC-3 = test: Growth inhibition of human PC3 cells after 48 hrs by SRB staining method; conditions: PC-3, 48 h
DU-145 = test: Growth inhibition of human DU145 cells after 48 hrs by SRB staining method; conditions: DU-145, 48 h
NCI/ADR-RES = test: Growth inhibition of human NCI/ADR-RES cells after 48 hrs by SRB staining method
[1] = Growth inhibition of human HS 578T cells after 48 hrs by SRB staining method
T47D = test: Growth inhibition of human T47D cells after 48 hrs by SRB staining method
SW-620 = test: Growth inhibition of human SW620 cells after 48 hrs by SRB staining method; conditions: SW-620, 48 h
SF-268 = test: Growth inhibition of human SF268 cells after 48 hrs by SRB staining method; conditions: SF-268, 48 h
HL-60 = test: Growth inhibition of human HL60 cells after 48 hrs by SRB staining method; conditions: HL-60, 48 h
K562 = test: Growth inhibition of human K562 cells after 48 hrs by SRB staining method; conditions: K562, 48 h
RPMI-8226 = test: Growth inhibition of human RPMI8226 cells after 48 hrs by SRB staining method; conditions: RPMI-8226, 48 h
EKVX = test: Growth inhibition of human EKVX cells after 48 hrs by SRB staining method
[2] = read-out: pLC50 (the source's name) (converted)

Nc1cc(N)c2nc(-c3ccccc3)c(Nc3ccc(Cl)c(Cl)c3)nc2c1
GI50 (HOP-62): 17.4 µM | LC50 (HOP-62): 81.3 µM | TGI (HOP-62; read-out: pTGI (converted)): 38 µM | GI50 (NCI-H226): 17.4 µM | LC50 (NCI-H226): 81.3 µM | TGI (NCI-H226; read-out: pTGI (converted)): 38 µM | GI50 (NCI-H23): 19.1 µM | LC50 (NCI-H23): > 100 µM | TGI (NCI-H23; read-out: pTGI (converted)): 55 µM | GI50 (NCI-H522): 5.25 µM | LC50 (NCI-H522): 69.2 µM | TGI (NCI-H522; read-out: pTGI (converted)): 21.9 µM | GI50 (HCT-116): 10.7 µM | LC50 (HCT-116): > 100 µM | TGI (HCT-116; read-out: pTGI (converted)): 52.5 µM | GI50 (HCT-15): 21.4 µM | LC50 (HCT-15): > 100 µM | TGI (HCT-15; read-out: pTGI (converted)): > 100 µM | GI50 (SF-295): 12.3 µM | LC50 (SF-295): 63.1 µM | TGI (SF-295; read-out: pTGI (converted)): 28.2 µM | GI50 (SNB-19): 12.9 µM | LC50 (SNB-19): 70.8 µM | TGI (SNB-19; read-out: pTGI (converted)): 30.2 µM | GI50 (U-251): 4.68 µM | LC50 (50% lethal concentration) (U-251): > 100 µM | TGI (U-251; read-out: pTGI (converted)): > 100 µM | GI50 (SK-MEL-2): 2.34 µM | LC50 (SK-MEL-2): 69.2 µM | TGI (SK-MEL-2; read-out: pTGI (converted)): 19.1 µM | GI50 (UACC-62): 13.2 µM | LC50 (UACC-62): 67.6 µM | TGI (UACC-62; read-out: pTGI (converted)): 30.2 µM | GI50 (IGROV-1): 4.9 µM | LC50 (IGROV-1): 66.1 µM | TGI (IGROV-1; read-out: pTGI (converted)): 20.9 µM | GI50 (OVCAR-3): 2.95 µM | LC50 (OVCAR-3): 37.2 µM | TGI (OVCAR-3; read-out: pTGI (converted)): 10 µM | GI50 (OVCAR-4): 11.2 µM | LC50 (OVCAR-4): > 100 µM | TGI (OVCAR-4; read-out: pTGI (converted)): 47.9 µM | GI50 (OVCAR-5): 28.2 µM | LC50 (OVCAR-5): 85.1 µM | TGI (OVCAR-5; read-out: pTGI (converted)): 49 µM | GI50 (786-0): 14.8 µM | CC50 (786-0; [2]): 93.3 µM | TGI (786-0; read-out: pTGI (converted)): 37.2 µM | GI50 (CAKI-1): 13.5 µM | CC50 (CAKI-1; [2]): 64.6 µM | TGI (CAKI-1; read-out: pTGI (converted)): 29.5 µM | GI50 (RXF 393): 6.17 µM | CC50 (RXF 393; [2]): > 100 µM | TGI (RXF 393; read-out: pTGI (converted)): 30.9 µM | GI50 (SN12C): 12.6 µM | CC50 (SN12C; [2]): 79.4 µM | TGI (SN12C; read-out: pTGI (converted)): 31.6 µM | GI50 (TK-10): 13.8 µM | CC50 (TK-10; [2]): 66.1 µM | TGI (TK-10; read-out: pTGI (converted)): 30.2 µM | GI50 (UO-31): 11.2 µM | CC50 (UO-31; [2]): > 100 µM | TGI (UO-31; read-out: pTGI (converted)): 36.3 µM | GI50 (PC-3): 3.09 µM | CC50 (PC-3; [2]): 89.1 µM | TGI (PC-3; read-out: pTGI (converted)): 15.1 µM | GI50 (DU-145): 16.6 µM | CC50 (DU-145; [2]): 63.1 µM | TGI (DU-145; read-out: pTGI (converted)): 32.4 µM | GI50 (NCI/ADR-RES): 15.5 µM | CC50 (NCI/ADR-RES; [2]): > 100 µM | TGI (NCI/ADR-RES; read-out: pTGI (converted)): 55 µM | GI50 [1]: 19.1 µM | CC50 [1, 2]: > 100 µM | TGI ([1]; read-out: pTGI (converted)): 51.3 µM | GI50 (T47D): 11.5 µM | CC50 (T47D; [2]): 83.2 µM | TGI (T47D; read-out: pTGI (converted)): 30.9 µM | GI50 (SW-620): 13.2 µM | CC50 (SW-620; [2]): > 100 µM | TGI (SW-620; read-out: pTGI (converted)): 51.3 µM | GI50 (SF-268): 12 µM | CC50 (SF-268; [2]): 67.6 µM | TGI (SF-268; read-out: pTGI (converted)): 28.8 µM | GI50 (HL-60): 2.57 µM | CC50 (HL-60; [2]): > 100 µM | TGI (HL-60; read-out: pTGI (converted)): 72.4 µM | GI50 (K562): 3.55 µM | CC50 (K562; [2]): > 100 µM | TGI (K562; read-out: pTGI (converted)): > 100 µM | GI50 (RPMI-8226): 2 µM | CC50 (RPMI-8226; [2]): > 100 µM | TGI (RPMI-8226; read-out: pTGI (converted)): 4.9 µM | GI50 (EKVX): 3.8 µM | CC50 (EKVX; [2]): 47.9 µM | TGI (EKVX; read-out: pTGI (converted)): 16.2 µM
